Source: US7157495B2, “Hexahydrofuro[2,3-B]furan-3-YL-N-{3-[(1,3-benzodioxol-5-ylsulfonyl)(isobutyl)amino]-1-benzyl-2-hydroxypropyl}carbamate as retroviral protease inhibitor” (Tibotec Pharmaceuticals, Ltd., priority 1999, dated 2007)
Where two headings read alike, the source gives them in different places.

Experiments:
HIV-1 strain LAI = assay: Cellular anti-HIV assay in MT4 cells (MTT); type: cell-based; conditions: for IC50: read-out: IC50
Description: (§1) HIV- or mock-infected MT4 cells were incubated for five days in the presence of various concentrations of the inhibitor. At the end of the incubation period, all HIV-infected cells have been killed by the replicating virus in the control cultures in the absence of any inhibitor. Cell viability is measured by measuring the concentration of MTT, a yellow, water soluble tetrazolium dye that is converted to a purple, water insoluble formazan in the mitochondria of living cells only. Upon solubilization of the resulting formazan crystals with isopropanol, the absorbance of the solution is monitored at 540 nm. The values correlate directly to the number of living cells remaining in the culture at the completion of the five day incubation. The inhibitory activity of the compound was monitored on the virus-infected cells and was expressed as IC50 and IC90. These values represent the amount of the compound required to protect 50% and 90%, respectively, of the cells from the cytopathogenic effect of the virus. The toxicity of the compound was measured on the mock-infected cells and was expressed as CC50, which represents the concentration of compound required to inhibit the growth of the cells by 50%. The select index (SI) (ratio CC50/IC50) is an indication of the selectivity of the anti-HIV activity of the inhibitor.

[1] = Oral absorption in rats, serum concentration; type: in vivo; conditions: single oral dose 20 mg/kg in PEG400 by gavage, read-out: Compound concentration in serum
Description: The oral absorption of compound 13 was then measured in rats to determine bioavailability. The compound was administered by gavage to rats, as a single dose of 20 mg/kg in PEG400. Animals were sacrificed at different time points after administration, whole blood was collected and serum prepared by standard methods. Concentration of the compound in serum was determined by titrating the anti-HIV activity present in the sample according to the procedure described above.

HIV strain r13036 = assay: Antiviral spectrum, protease inhibitor resistant strain; type: cell-based; conditions: strain r13036; L10I, L63P, A71V, G73S, L90M
Description: as §1
(§2) Because of the increasing emergence of drug resistant HIV strains, compound 13 and compound 14 were tested for its potency against HIV strains harbouring several mutations. These mutations are associated with resistance to protease inhibitors and result in viruses that show various degrees of phenotypic cross-resistance to five of the currently commercially available drugs (Saquinavir, Ritonavir, Nelfinavir, Indinavir and Amprenavir).

HIV strain r13023 = assay: as above; type: cell-based; conditions: strain r13023; L10I, M36I/M, I54V/I, L63P, A71V, G73S, I84V, L90M
Description: as §1, §2

HIV strain r13022 = assay: as above; type: cell-based; conditions: strain r13022; K20R, M36I, M46I/M, 154V, L63P, A71V/I, V82T, L90M
Description: as §1, §2

HIV strain r13033 = assay: as above; type: cell-based; conditions: strain r13033; L10I, M46L, I54V, L63P, A71V, V82A, L90M
Description: as §1, §2

HIV strain r13021 = assay: as above; type: cell-based; conditions: strain r13021; L10I, K20R, L24I, M36I, I54V, L63P, A71V, V82T, I84V
Description: as §1, §2

HIV strain r13035 = assay: as above; type: cell-based; conditions: strain r13035; D30N, L63P, V77I, N88D
Description: as §1, §2

HIV strain r13034 = assay: as above; type: cell-based; conditions: strain r13034; L10I, M36I, I54V, L63P, A71V, I84V
Description: as §1, §2

HIV strain r13027 = assay: as above; type: cell-based; conditions: strain r13027; L10M/I, K20R, M36I, L63P, A71V, G73S, V77I, I84V, L90M
Description: as §1, §2

HIV strain r13029 = assay: as above; type: cell-based; conditions: strain r13029; L10I/L, M36I, M46L, L63P, A71V, I84V, N88D, L90M
Description: as §1, §2

HIV strain r13025 = assay: as above; type: cell-based; conditions: strain r13025; L10I, M46I, L63P, A71V, I84V
Description: as §1, §2

HIV strain r13030 = assay: as above; type: cell-based; conditions: strain r13030; L10V/I, M36I, I54V, L63P, A71V, V82T, L90M
Description: as §1, §2

HIV strain r13024 = assay: as above; type: cell-based; conditions: strain r13024; L10I, M36I, L63P, A71V, G73S, I84V, L90M
Description: as §1, §2

HIV strain r13037 = assay: as above; type: cell-based; conditions: strain r13037; L10I, M46I, I54V, L63P, A71T, V77I, V82A, L90M
Description: as §1, §2

HIV strain r13031 = assay: as above; type: cell-based; conditions: strain r13031; G48V, I54V, V77I, V82A, L90M/L
Description: as §1, §2

HIV = assay: Anti-HIV activity in the presence of human serum proteins (HSA or AAG); type: cell-based
Description: as §1, with “These values represent the amount of the compound required to protect 50% and 90%, respectively, of the cells from the cytopathogenic effect of the virus. The toxicity of the compound was measured on the mock-infected cells and was expressed as CC50, which represents the concentration of compound required to inhibit the growth of the cells by 50%. The select index (SI) (ratio CC50/IC50) is an indication of the selectivity of the anti-HIV activity of the inhibitor.” left out
Human serum proteins like albumin (HSA) or alpha-1 acid glycoprotein (AAG) are known to bind many drugs, resulting in a possible decrease in the effectiveness of those compounds. In order to determine whether compound 13 would be adversely effected by this binding, the anti-HIV activity of the compound was measured in the presence of physiological concentrations of HSA or AAG, thus evaluating the effect of the binding of the inhibitor to those proteins.

CC(C)CN(CC(O)C(Cc1ccccc1)NC(=O)OC1COC2OCCC12)S(=O)(=O)c1ccc2c(c1)OCO2 (stereo not shown) [Compound 13, hexahydrofuro[2,3-b]furan-3-yl-N-{3-[(1,3-benzodioxol-5-ylsufonyl)(isobutyl)amino]-1-benzyl-2-hydroxypropyl}carbamate]
SI (ratio CC50/IC50) (HIV-1 strain LAI; CC50 on mock-infected MT4 cells / IC50 on HIV-1 LAI): 13,900
IC90 (HIV-1 strain LAI; Human immunodeficiency virus 1, 120 h, HIV-1 strain LAI, MT4 cells, five days, median value of 12 determinations): 2.4 nM
IC50 (HIV-1 strain LAI; Human immunodeficiency virus 1, MT4, 120 h, HIV-1 strain LAI, MT4 cells, five days): 1.1 nM
IC50 (HIV-1 strain LAI; strain LAI): 1.4 nM
concentration at 0 min ([1]; rat, serum, po, 20 mg/kg, 0 minutes after administration): 0 nM
concentration at 60 min ([1]; rat, serum, po, 20 mg/kg, 60 minutes after administration): 1000 nM
concentration at 180 min ([1]; rat, serum, po, 20 mg/kg, 180 minutes after administration): 687 nM
concentration at 300 min ([1]; rat, serum, po, 20 mg/kg, 300 minutes after administration): 216 nM
concentration at 300 min ([1]; 60 minutes after administration): 985.8 nM
IC50 (HIV strain r13036): 5.4 nM
IC50 (HIV strain r13023): 6.8 nM
IC50 (HIV strain r13022): 1.7 nM
IC50 (HIV strain r13033): 1.7 nM
IC50 (HIV strain r13021): 5.5 nM
IC50 (HIV strain r13035): 0.3 nM
IC50 (HIV strain r13034): 8 nM
IC50 (HIV strain r13027): 7.4 nM
IC50 (HIV strain r13029): 7 nM
IC50 (HIV strain r13025): 45.4 nM
IC50 (HIV strain r13030): 0.4 nM
IC50 (HIV strain r13024): 8.1 nM
IC50 (HIV strain r13037): 0.3 nM
IC50 (HIV strain r13031): 0.5 nM
decrease of the potency (HIV; AAG at a concentration of 2 mg/ml): two to four
effect on the potency (HIV; HSA at a concentration of 45 mg/ml): no effect
